Reference: US11242361B2 (Proteostasis Therapeutics, Inc., priority 2013, dated 2022)

Biological target: USP14 (Homo sapiens (Human), UniProt P54578)
Test: USP14 Inhibition Assay
Type: biochemical
Conditions: average value from a minimum of two experimental determinations, read-out: IC50 Category
Procedure: Example 17: USP14 Inhibition Assay
“I” in the Table below designates an IC50 of >5 μM, “II” in the Table below designates and IC50 between 0.5 and 5 μM, and “III” designates an IC50<0.5 μM. The IC50 values in the Table below represent the average value from a minimum of two experimental determinations.

USP14, sequence (P54578 whole entry, looked up): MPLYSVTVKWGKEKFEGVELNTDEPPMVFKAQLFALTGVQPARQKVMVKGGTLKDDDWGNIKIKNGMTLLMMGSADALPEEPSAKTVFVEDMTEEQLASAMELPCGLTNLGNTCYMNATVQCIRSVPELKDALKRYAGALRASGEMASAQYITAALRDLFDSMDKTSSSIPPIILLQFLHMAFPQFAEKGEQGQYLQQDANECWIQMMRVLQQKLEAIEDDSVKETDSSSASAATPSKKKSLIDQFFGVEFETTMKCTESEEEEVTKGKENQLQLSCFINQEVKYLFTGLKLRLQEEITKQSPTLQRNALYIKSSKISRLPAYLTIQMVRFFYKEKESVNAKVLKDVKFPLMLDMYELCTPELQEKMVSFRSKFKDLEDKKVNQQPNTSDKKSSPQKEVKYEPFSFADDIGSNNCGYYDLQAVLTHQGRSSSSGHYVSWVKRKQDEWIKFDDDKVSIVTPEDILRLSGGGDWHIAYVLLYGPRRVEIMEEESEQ

Structure (SMILES) | IC50 [µM]
O=C(CN1CCCCC1)c1c(C2CC2)n(-c2ccc(Cl)cc2)c2ccccc12 [Compound 399] | > 5
Cc1c(C(=O)CN2CCC(O)CC2)c2ccccc2n1-c1ncc(Cl)cn1 [Compound 400] | > 5
Cc1c(C(=O)CN2CCC(O)CC2)c2ccccc2n1-c1ncc(Cl)s1 [Compound 402] | > 5

Next, values leading:

IC50 [µM] | Structure (SMILES)
0.5 to 5 | Cc1c(C(=O)CN2CCC(O)CC2)c2ccccc2n1-c1ccc(Cl)cn1 [Compound 398]
0.5 to 5 | CCc1c(C(=O)CN2CCCCC2)c2ccccc2n1-c1ccc(Cl)cc1 [Compound 401]
